As a reminder, the IC50 is the concentration that gives 50% inhibition.

The target in assay [1] is T1, Human vitronectin receptor(αvβ3) (Homo sapiens, UniProt P05106+P06756).
T1 construct: purified from human placenta; from tissue; host or cells: human placenta
Description: Vitronectin adhesion assay (solid phase receptor assay, αvβ3). The following applies: inhibition of 50% of maximum binding of biotinylated vitronectin; highest concentration tested 1.0×10^-4 M; read-out: AvB3 IC50. The protocol:
The activity of the compounds of the present invention was tested in the following assays. […] Assay buffer, OPD substrate tablets, and RIA grade BSA were obtained from Sigma (St. Louis, Mo.). Anti-biotin antibody was obtained from Calbiochem (La Jolla, Calif.). Linbro microtiter plates were obtained from Flow Labs (McLean, Va.). ADP reagent was obtained from Sigma (St. Louis, Mo.). […] The purified human vitronectin receptor (αvβ3) was diluted from stock solutions to 1.0 μg/mL in Tris-buffered saline containing 1.0 mM Ca^++, Mg^++, and Mn^++, pH 7.4 (TBS^+++). The diluted receptor was immediately transferred to Linbro microtiter plates at 100 μL/well (100 ng receptor/well). The plates were sealed and incubated overnight at 4° C. to allow the receptor to bind to the wells. All remaining steps were at room temperature. The assay plates were emptied and 200 μL of 1% RIA grade BSA in TBS^+++ (TBS^+++ /BSA) were added to block exposed plastic surfaces. Following a 2 hour incubation, the assay plates were washed with TBS^+++ using a 96 well plate washer. […] The competition occurred for two hours after which all wells were washed with a plate washer as before. […] After 30 minutes, the plates were washed and incubated with OPD/H2 O2 substrate in 100 mM/L Citrate buffer, pH 5.0. […] The data were analyzed using a macro written for use with the EXCEL™ spreadsheet program. The mean, standard deviation, and % CV were determined for duplicate concentrations. The mean A450 values were normalized to the mean of four maximum-binding controls (no competitor added)(B-MAX). The normalized values were subjected to a four parameter curve fit algorithm [Rodbard et al., Int. […] Ser.

Assay [2] has as its target T2, Human fibrinogen receptor (αIIbβ3) (Homo sapiens, UniProt P05106+P08514).
T2 construct: purified from outdated platelets; from tissue; host or cells: outdated platelets (human)
Description: Purified IIb/IIIa receptor assay (solid phase receptor assay). Particulars: inhibition of 50% of maximum binding of biotinylated vitronectin; highest concentration tested 1.0×10^-4 M. The protocol: The activity of the compounds of the present invention was tested in the following assays.
Human fibrinogen receptor (αIIbβ3) was purified from outdated platelets. […] Biotinylated human vitronectin was prepared by coupling NHS-biotin from Pierce Chemical Company (Rockford, Ill.) to purified vitronectin as previously described. […] Anti-biotin antibody was obtained from Calbiochem (La Jolla, Calif.). Linbro microtiter plates were obtained from Flow Labs (McLean, Va.). ADP reagent was obtained from Sigma (St. Louis, Mo.).
Solid Phase Receptor Assays
The purified human fibrinogen receptor (αIIbβ3) was diluted from stock solutions to 1.0 μg/mL in Tris-buffered saline containing 1.0 mM Ca^++, Mg^++, and Mn^++, pH 7.4 (TBS^+++). The diluted receptor was immediately transferred to Linbro microtiter plates at 100 μL/well (100 ng receptor/well). The plates were sealed and incubated overnight at 4° C. to allow the receptor to bind to the wells. All remaining steps were at room temperature. The assay plates were emptied and 200 μL of 1% RIA grade BSA in TBS^+++ (TBS^+++ /BSA) were added to block exposed plastic surfaces. Following a 2 hour incubation, the assay plates were washed with TBS^+++ using a 96 well plate washer. Logarithmic serial dilution of the test compound and controls were made starting at a stock concentration of 2 mM and using 2 nM biotinylated vitronectin in TBS^+++ /BSA as the diluent. This premixing of labeled ligand with test (or control) ligand, and subsequent transfer of 50 μL aliquots to the assay plate was carried out with a CETUS Propette robot; the final concentration of the labeled ligand was 1 nM and the highest concentration of test compound was 1.0×10^-4 M. The competition occurred for two hours after which all wells were washed with a plate washer as before. Affinity purified horseradish peroxidase labeled goat anti-biotin antibody was diluted 1:3000 in TBS^+++ /BSA and 125 μL were added to each well. After 30 minutes, the plates were washed and incubated with […]/H2 O2 substrate in 100 mM/L citrate buffer, pH 5.0. The plate was read with a microtiter plate reader at a wavelength of 450 nm and when the maximum-binding control wells reached an absorbance of about 1.0, the final A450 were recorded for analysis. The data were analyzed using a macro written for use with the EXCEL™ spreadsheet program. The mean, standard deviation, and % CV were determined for duplicate concentrations. The mean A450 values were normalized to the mean of four maximum-binding controls (no competitor added) (B-MAX). The normalized values were subjected to a four parameter curve fit algorithm, [Robard et al., Int.

Counter-ions that a name gives are not always drawn.

T2 sequence (P08514 32-887 limits assumed): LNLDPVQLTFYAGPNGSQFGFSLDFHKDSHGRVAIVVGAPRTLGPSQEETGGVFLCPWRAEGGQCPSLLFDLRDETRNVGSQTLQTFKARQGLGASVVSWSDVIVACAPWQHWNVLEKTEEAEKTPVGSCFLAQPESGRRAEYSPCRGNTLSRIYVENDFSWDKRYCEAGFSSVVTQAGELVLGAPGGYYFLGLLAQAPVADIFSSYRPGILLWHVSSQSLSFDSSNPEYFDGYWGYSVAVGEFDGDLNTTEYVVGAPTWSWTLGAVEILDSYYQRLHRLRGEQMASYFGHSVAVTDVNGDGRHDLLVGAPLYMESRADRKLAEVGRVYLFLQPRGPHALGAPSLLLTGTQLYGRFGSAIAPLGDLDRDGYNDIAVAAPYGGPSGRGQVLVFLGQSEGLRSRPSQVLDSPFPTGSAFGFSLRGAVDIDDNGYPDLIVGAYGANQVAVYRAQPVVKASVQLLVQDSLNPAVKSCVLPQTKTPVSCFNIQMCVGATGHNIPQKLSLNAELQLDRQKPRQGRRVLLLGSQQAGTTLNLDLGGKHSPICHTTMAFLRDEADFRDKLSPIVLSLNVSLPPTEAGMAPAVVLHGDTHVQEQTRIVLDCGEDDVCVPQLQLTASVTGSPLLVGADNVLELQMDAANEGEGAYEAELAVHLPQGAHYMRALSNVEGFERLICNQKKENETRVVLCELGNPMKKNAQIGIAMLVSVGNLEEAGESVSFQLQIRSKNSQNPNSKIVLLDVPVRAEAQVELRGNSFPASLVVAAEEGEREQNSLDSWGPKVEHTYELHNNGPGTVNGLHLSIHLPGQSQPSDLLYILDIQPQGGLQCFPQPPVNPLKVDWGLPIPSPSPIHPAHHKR
T2 sequence (P08514 891-1039 limits assumed): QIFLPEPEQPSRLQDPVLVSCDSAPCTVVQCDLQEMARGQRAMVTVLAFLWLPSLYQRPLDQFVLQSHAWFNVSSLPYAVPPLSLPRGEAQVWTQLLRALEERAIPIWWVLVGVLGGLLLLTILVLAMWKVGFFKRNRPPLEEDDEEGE
T2 sequence (P05106 27-788): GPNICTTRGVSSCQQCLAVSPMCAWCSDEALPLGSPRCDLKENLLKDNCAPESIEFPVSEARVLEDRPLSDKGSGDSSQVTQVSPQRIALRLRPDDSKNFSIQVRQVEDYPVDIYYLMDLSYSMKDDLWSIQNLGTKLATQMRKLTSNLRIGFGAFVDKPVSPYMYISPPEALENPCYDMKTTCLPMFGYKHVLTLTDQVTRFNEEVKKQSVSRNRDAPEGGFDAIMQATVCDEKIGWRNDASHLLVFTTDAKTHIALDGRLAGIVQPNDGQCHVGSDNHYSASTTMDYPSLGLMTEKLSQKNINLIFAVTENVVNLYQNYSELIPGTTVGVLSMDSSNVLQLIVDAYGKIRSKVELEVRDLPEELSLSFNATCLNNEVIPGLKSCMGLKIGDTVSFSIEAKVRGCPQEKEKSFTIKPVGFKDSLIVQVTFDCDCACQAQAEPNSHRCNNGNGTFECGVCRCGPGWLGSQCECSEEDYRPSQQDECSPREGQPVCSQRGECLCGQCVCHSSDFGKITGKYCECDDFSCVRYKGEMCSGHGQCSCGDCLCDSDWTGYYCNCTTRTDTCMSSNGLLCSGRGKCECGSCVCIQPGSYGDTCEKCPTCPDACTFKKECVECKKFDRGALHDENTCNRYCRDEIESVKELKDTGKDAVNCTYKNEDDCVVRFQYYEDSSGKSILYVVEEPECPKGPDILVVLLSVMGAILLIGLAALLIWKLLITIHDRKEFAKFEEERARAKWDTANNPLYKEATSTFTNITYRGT
T1 sequence (P06756 31-889 limits assumed): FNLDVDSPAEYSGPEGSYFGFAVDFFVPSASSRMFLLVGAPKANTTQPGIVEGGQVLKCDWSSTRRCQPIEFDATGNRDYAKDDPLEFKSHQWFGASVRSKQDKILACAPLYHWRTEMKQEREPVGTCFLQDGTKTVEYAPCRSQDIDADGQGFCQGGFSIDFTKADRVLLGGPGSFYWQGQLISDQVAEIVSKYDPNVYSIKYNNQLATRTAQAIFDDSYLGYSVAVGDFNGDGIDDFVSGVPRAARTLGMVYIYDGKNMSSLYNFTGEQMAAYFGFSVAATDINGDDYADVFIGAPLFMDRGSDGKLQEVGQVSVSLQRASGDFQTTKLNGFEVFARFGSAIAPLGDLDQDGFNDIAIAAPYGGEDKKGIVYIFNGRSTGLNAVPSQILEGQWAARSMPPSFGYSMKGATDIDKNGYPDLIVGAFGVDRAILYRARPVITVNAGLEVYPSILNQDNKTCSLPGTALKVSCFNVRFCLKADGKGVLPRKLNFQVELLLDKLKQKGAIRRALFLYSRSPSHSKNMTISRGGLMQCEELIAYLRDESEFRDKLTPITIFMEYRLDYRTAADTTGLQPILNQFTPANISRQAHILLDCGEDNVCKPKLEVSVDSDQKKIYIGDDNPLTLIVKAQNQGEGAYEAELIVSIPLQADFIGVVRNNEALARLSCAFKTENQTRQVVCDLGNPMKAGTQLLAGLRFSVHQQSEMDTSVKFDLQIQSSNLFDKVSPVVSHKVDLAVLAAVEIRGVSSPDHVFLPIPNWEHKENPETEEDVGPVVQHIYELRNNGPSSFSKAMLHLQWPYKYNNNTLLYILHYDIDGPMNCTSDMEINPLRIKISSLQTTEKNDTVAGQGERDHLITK
T1 sequence (P06756 891-1048 limits assumed): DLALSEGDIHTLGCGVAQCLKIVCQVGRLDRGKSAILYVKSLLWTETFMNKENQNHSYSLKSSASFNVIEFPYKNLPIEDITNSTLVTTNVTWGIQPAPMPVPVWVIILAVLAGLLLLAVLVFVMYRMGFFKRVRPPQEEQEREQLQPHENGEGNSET
T1 sequence (P05106 27-788): as the sequence (P05106 27-788) above

For the molecule `COC(=O)NC(Cc1ccc(NC(=O)c2cccc(NC(=N)N)c2)cc1)C(=O)O` (stereo not drawn) [Example 54, 4-[[[3-[(aminoiminomethyl)amino]phenyl]carbonyl]amino]-N-(methoxycarbonyl)phenylalanine, trifluoroacetate Salt], the IC50 is 0.77 nM in assay [1] and 36.5 nM in assay [2].
The matching figures for `N=C(N)Nc1cccc(C(=O)Nc2ccc(C(CC(=O)O)C(=O)O)cc2)c1` (stereo not drawn) [Example 69, [4-[[[3-[(aminoiminomethyl)amino]-phenyl]carbonyl]amino]phenyl]butanedioicAcid, trifluoroacetate Salt]: 94 nM and 37 nM.
For the molecule `N=C(N)Nc1cccc(C(=O)Nc2ccc(C(CC(=O)O)C(=O)NCC(=O)O)cc2)c1` (stereo not drawn) [Example 73, 4-[[[3-[(aminoiminomethyl)amino]phenyl]-carbonyl]amino]-beta-[[(carboxymethyl)amino]carbonyl]-benzenepropanoic Acid, trifluoroacetate Salt], the IC50 in assay [1] is 141 nM; in assay [2] it was 40 nM.
With `N=C(N)Nc1cccc(C(=O)Nc2ccc(CCC(=O)O)cc2O)c1` [Example 75, 4-[[[3-[(aminoiminomethyl)amino]phenyl]-carbonyl]amino]-3-hydroxybenzenepropanoic Acid, trifluoroacetate Salt], the 50% inhibitory concentration (IC50) was determined as 14.5 nM in assay [1] and 330 nM in assay [2].
For `N=C(N)Nc1cccc(C(=O)Nc2ccc(OCC(=O)O)cc2)c1` [Example 81, [4-[[[3-[(aminoiminomethyl)amino]phenyl]-carbonyl]amino]phenoxy]acetic Acid, trifluoroacetate Salt], the half-maximal inhibitory concentration (IC50) in assay [1] is 19.1 nM; in assay [2], 129 nM.
Regarding `N=C(N)Nc1cccc(C(=O)Nc2ccc(S(=O)(=O)CC(=O)O)cc2)c1` [Example 83, [[4-[[[3-[(aminoiminomethyl)amino]phenyl]carbonyl]amino]phenyl]sulfonyl]acetic Acid], the IC50 in assay [1] is 1900 nM; in assay [2], 474 nM.
For the molecule `CCOC(=O)C(Oc1ccc(NC(=O)c2cccc(NC(=N)N)c2)cc1)c1ccccc1` (stereo not drawn) [Example 86C, ethyl α-[4-[[[3-[(aminoiminomethyl)amino]phenyl]carbonyl]amino]phenoxy]benzeneacetate, trifluoroacetate Salt], the IC50 was 56800 nM in assay [1] and above 100000 nM in assay [2].
Consider `CC(C)OC(=O)NC(Cc1ccc(NC(=O)c2ccc(Cl)c(NC(=N)N)c2)cc1)C(=O)O` (stereo not drawn) [Example 87, 4[[[3-[(aminoiminomethyl)amino]-4-chlorophenyl]carbonyl]amino]-N-[(1-methylethoxy)carbonyl]phenylalanine], for which the figures for the 50% inhibitory concentration (IC50) in assay [1] and in assay [2] were 0.44 nM and 85.3 nM, respectively.
As for `CCOC(=O)CSc1ccc(NC(=O)c2cccc(NC(=N)N)c2)cc1` [Example 90, ethyl[[4-[[(3-[(aminoiminomethyl)amino]phenyl]carbonyl]amino]phenyl]thio]acetic Acid, trifluoroacetate], the concentration for half-maximal inhibition (IC50) in assay [1] was found to be 23700 nM; in assay [2] it was 34500 nM.
Turning to `N=C(N)Nc1cccc(C(=O)Nc2ccc(CCC(=O)O)c(CCC(=O)O)c2)c1` [Example 100, 4-[[[3-[(aminoiminomethyl)amino]phenyl]carbonyl]amino]benzene-1,2-dipropanoic Acid, trifluoroacetate Salt], the IC50 in assay [1] was found to be 6 nM; in assay [2] it was 44 nM.
As for `CC(C)(C)CC(=O)NC(Cc1ccc(NC(=O)c2cccc(NC(=N)N)c2)cc1)C(=O)O` (stereo not drawn) [Example 109, 4-[[[3-[(aminoiminomethyl)amino]phenyl]carbonyl]amino]-N-(3,3-dimethyl-1-oxobutyl)phenylalanine, trifluoroacetate Salt], the IC50 in assay [1] came out at 5 nM; in assay [2], 111 nM.
Turning to `CC(C)(C)CC(=O)NC(Cc1ccc(NC(=O)c2cc(NC(=N)N)cc(C(F)(F)F)c2)cc1)C(=O)O` (stereo not drawn) [Example 110, 4-[[[3-[(aminoiminomethyl)amino]-5-(trifluoromethyl)phenyl]carbonyl]amino]-N-(3,3-dimethyl-1-oxobutyl)phenylalanine, trifluoroacetate Salt], the IC50 in assay [1] was 4 nM; in assay [2], 326 nM.
In the case of `COc1cc(NC(=O)c2cccc(NC(=N)N)c2)ccc1CC(NC(=O)OC(C)C)C(=O)O` (stereo not drawn) [Example 113, 4-[[[3-[(aminoiminomethyl)amino]phenyl]carbonyl]amino]-2-methoxy-N-[(1-methylethoxy)carbonyl]phenylalanine, trifluoroacetate salt, monohydrate], the concentration for half-maximal inhibition (IC50) was 1 nM in assay [1] and 253 nM in assay [2].
The matching figures for `COc1cc(NC(=O)c2cccc(NC(=N)N)c2)ccc1OCC(=O)O` [Example 118, [4-[[[3-[(aminoiminomethyl)amino]phenyl]carbonyl]amino]-2-methoxyphenoxy]acetic Acid, trifluoroacetate Salt]: 3 nM and 54 nM.
Consider `N=C(N)Nc1cccc(C(=O)Nc2ccc(CC(NS(=O)(=O)/C=C/c3ccccc3)C(=O)O)cc2)c1` (stereo not drawn) [Example 123, 4-[[[3-[(aminoiminomethyl)amino]phenyl]carbonyl]amino]-N-[(2-phenylethenyl)sulfonyl]phenylalanine, trifluoroacetate Salt], for which the half-inhibitory concentration (IC50) was 0.5 nM in assay [1] and 1.5 nM in assay [2].
Consider `CC(C)(C)NC(=O)NC(Cc1ccc(NC(=O)c2cccc(NC(=N)N)c2)cc1)C(=O)O` (stereo not drawn) [Example 124, 4-[[[3-[(aminoiminomethyl)amino]phenyl]carbonyl)amino]-N-[[(1,1-dimethylethyl)amino]carbonyl]phenylalanine, trifluoroacetate Salt], for which the IC50 amounted to 3 nM in assay [1] and 285 nM in assay [2].
As to `CC(C)OC(=O)NC(Cc1ccc(NC(=O)c2cccc(C(=O)NC(=N)N)c2)cc1)C(=O)O` (stereo not drawn) [Example 128, 4-[[[3-[[(aminoiminomethyl)amino]carbonyl]phenyl]carbonyl]amino]-N-[(1-methylethoxy)carbonyl]phenylalanine, trifluoroacetate Salt], the 50% inhibitory concentration (IC50) in assay [1] stood at 216 nM; in assay [2] it was 20 nM.
The matching figures for `CCC(Cc1ccc(NC(=O)c2cccc(NC(=N)N)c2)cc1)C(=O)O` (stereo not drawn) [Example 129, 4-[[[3-[(aminoiminomethyl)amino]phenyl]carbonyl]amino]-α-ethylbenzenepropanoic Acid, trifluoroacetate Salt]: 265 nM and 5260 nM.

These data come from patent publication US6251944A, “Para-substituted phenylene derivatives” (G. D. Searle & Company, priority 1999, dated 2001).
